What all share (format): binding
The target of assay [1] is BLK (Homo sapiens, UniProt P51451). Nature of the assay: KinomeScan.
In assay [2] the target is T1, TYK2 (JH1domain-catalytic) (Homo sapiens, UniProt P29597).
T1 sequence (P29597 897-1176 limits assumed): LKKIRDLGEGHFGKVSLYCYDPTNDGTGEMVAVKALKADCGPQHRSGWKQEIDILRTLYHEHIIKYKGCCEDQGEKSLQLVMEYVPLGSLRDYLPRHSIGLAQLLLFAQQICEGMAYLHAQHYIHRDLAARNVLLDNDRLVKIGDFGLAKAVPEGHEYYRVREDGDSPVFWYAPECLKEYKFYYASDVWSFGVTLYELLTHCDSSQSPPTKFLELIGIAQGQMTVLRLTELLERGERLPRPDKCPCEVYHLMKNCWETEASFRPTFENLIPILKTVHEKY
Nature of the assay: KinomeScan.

Assay [3] addresses Bruton's tyrosine kinase (Btk) kinase domain (Homo sapiens, UniProt Q06187). Nature of the assay: ITC titration.

pKd: −log10 of the molar value.

Sequence of Bruton's tyrosine kinase (Btk) kinase domain (Q06187 387-569): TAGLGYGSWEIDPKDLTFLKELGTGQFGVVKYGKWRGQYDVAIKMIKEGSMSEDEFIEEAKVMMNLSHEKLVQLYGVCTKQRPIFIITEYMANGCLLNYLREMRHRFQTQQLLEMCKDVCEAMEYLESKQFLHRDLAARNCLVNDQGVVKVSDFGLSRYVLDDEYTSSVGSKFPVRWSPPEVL
Sequence of BLK (P51451 2-505): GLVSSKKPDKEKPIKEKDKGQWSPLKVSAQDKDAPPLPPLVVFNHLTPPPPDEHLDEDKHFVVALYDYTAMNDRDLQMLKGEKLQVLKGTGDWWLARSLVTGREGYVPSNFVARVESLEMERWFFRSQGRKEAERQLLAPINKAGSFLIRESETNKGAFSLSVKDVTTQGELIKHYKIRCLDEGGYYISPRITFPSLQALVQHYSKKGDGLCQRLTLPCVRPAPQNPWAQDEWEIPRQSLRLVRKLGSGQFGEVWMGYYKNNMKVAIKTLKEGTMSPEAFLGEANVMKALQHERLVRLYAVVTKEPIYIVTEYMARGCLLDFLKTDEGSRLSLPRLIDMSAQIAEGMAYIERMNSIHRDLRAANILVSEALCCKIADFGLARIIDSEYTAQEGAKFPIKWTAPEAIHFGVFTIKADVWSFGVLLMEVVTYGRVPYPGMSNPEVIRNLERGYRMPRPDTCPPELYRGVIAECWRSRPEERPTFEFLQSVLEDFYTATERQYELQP

A word on the pKd: it is the negative decadic logarithm of the Kd, by convention in mol/L. High values mean a low Kd, low ones a high Kd. With `c1nc2c(Nc3ccc4c(c3)OCCO4)nc(Nc3ccc4c(c3)OCCO4)nc2[nH]1` [L6, N2,N6-bis(2,3-dihydrobenzo[b][1,4]dioxin-6-yl)-9H-purine-2,6-diamine], the activity at 10 µM was found to be 0.4% in assay [1] and 0.8% in assay [2]. This molecule gave a pKd in assay [3] of 6.60.

The record behind these values is paper PMC6641755 (ACS Omega, 2017).
